The values that follow come from ChEMBL document CHEMBL3217539, “Design, synthesis and biological evaluation of new molecules inhibiting epidermal growth factor receptor threonine790 methionine790 mutant” (Medchemcomm, 2012).

Active and inactive are the calls of the source. No cut-off for these calls is given here. Where only a bound is given, the exact number is not on record here.

Data set [1] is described as follows: Cytotoxicity against human HL7702 cells expressing wild type EGFR after 72 hrs by MTS assay. Format: ADME, cell-based. As to conditions: L02, 72 h. For orientation: Tetrazolium dyes change colour on reduction, which living cells bring about.
The next data set has as its system NCI-H1975. Description: cells. In kind it is functional, cell-based. As to conditions: Homo sapiens, NCI-H1975, 72 h.
Data set [2] can be described thus: Cytotoxicity against human HCC827 cells expressing EGFR kinase E746 to A750 deletion mutant after 72 hrs by MTS assay. Format: functional, cell-based. As to conditions: HCC827, 72 h.
Data set [3] concerns the target Epidermal growth factor receptor (Homo sapiens, UniProt P00533, T790M). Put plainly: Inhibition of EGFR kinase T790M mutant (unknown origin) after 1.5 hrs by FRET-based Z'-Lyte assay. Format: protein assay.
Data set [4] addresses Epidermal growth factor receptor (Homo sapiens, UniProt P00533, L861Q). Description: Inhibition of EGFR kinase L861Q mutant (unknown origin) after 1.5 hrs by FRET-based Z'-Lyte assay. In kind it is protein assay.
In data set [5] the target is Epidermal growth factor receptor (Homo sapiens, UniProt P00533, L858R). Put plainly: Inhibition of EGFR kinase L858R mutant (unknown origin) after 1.5 hrs by FRET-based Z'-Lyte assay. In kind it is protein assay.
The target of data set [6] is Epidermal growth factor receptor (Homo sapiens, UniProt P00533). Description: Inhibition of wild type EGFR kinase (unknown origin) after 1.5 hrs by FRET-based Z'-Lyte assay.
Data set [7] has as its target Epidermal growth factor receptor (Homo sapiens, UniProt P00533, L858R/T790M). Put plainly: Inhibition of EGFR kinase L858R/T790M double mutant (unknown origin) after 1.5 hrs by FRET-based Z'-Lyte assay. In kind it is protein assay.
A short description of data set [8]: Selectivity ratio of IC50 for human HL7702 cells expressing wild type EGFR to IC50 for human H1975 cells expressing EGFR kinase […]. Format: ADME, cell-based. As to conditions: read-out: Ratio IC50.
A short description of data set [9]: Selectivity ratio of IC50 for human HL7702 cells expressing wild type EGFR to IC50 for human H1975 cells expressing EGFR kinase L858R/T790M double mutant. In kind it is ADME, cell-based. As to conditions: read-out: Ratio IC50.
The test system of data set [10] is Epidermal growth factor receptor (Homo sapiens), P00533 [L858R,T790M]. Description: Inhibition of EGFR kinase L858R/T790M double mutant phosphorylation in human H1975 cells after 24 hrs by Western blotting analysis. Format: cell-based. In general terms: Immunoblotting shows a protein as a band on a membrane.
For data set [11] the test system is unchanged. Put plainly: Inhibition of EGFR kinase L858R/T790M double mutant phosphorylation in human H1975 cells at >= 50 nM after 24 hrs by Western blotting analysis. In kind it is cell-based.

Sequence of Epidermal growth factor receptor (Homo sapiens, UniProt P00533, L861Q) (P00533 25-1210 L861Q limits assumed): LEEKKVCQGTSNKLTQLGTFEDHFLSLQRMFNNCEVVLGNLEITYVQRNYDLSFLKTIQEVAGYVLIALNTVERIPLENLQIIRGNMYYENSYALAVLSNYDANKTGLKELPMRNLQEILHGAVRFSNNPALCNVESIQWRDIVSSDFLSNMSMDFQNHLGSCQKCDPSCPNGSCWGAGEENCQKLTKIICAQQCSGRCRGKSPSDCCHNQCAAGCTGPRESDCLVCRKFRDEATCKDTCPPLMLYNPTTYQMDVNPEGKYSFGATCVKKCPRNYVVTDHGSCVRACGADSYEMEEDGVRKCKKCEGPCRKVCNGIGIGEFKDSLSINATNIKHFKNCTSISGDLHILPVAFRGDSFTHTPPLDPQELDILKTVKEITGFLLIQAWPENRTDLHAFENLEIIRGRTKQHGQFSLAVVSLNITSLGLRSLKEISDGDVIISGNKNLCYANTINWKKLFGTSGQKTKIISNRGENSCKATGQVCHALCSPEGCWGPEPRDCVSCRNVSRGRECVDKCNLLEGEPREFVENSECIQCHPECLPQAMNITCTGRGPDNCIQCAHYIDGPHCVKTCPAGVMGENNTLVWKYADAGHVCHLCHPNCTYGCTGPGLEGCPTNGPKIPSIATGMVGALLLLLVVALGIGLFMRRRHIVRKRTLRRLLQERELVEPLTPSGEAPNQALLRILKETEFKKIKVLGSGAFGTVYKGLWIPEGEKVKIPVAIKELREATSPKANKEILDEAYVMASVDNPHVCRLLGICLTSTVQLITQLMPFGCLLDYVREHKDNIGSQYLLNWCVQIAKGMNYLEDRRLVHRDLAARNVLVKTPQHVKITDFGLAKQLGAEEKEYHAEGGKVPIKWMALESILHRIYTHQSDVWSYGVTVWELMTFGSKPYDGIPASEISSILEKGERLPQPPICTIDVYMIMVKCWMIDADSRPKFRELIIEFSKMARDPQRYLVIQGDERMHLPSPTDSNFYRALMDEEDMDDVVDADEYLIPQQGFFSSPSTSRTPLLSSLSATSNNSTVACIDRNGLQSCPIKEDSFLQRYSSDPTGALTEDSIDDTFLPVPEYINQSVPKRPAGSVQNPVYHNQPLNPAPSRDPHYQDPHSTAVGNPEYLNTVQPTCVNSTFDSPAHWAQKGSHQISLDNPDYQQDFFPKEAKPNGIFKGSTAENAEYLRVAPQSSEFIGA
Sequence of Epidermal growth factor receptor (Homo sapiens, UniProt P00533, L858R/T790M) (P00533 25-1210 T790M/L858R limits assumed): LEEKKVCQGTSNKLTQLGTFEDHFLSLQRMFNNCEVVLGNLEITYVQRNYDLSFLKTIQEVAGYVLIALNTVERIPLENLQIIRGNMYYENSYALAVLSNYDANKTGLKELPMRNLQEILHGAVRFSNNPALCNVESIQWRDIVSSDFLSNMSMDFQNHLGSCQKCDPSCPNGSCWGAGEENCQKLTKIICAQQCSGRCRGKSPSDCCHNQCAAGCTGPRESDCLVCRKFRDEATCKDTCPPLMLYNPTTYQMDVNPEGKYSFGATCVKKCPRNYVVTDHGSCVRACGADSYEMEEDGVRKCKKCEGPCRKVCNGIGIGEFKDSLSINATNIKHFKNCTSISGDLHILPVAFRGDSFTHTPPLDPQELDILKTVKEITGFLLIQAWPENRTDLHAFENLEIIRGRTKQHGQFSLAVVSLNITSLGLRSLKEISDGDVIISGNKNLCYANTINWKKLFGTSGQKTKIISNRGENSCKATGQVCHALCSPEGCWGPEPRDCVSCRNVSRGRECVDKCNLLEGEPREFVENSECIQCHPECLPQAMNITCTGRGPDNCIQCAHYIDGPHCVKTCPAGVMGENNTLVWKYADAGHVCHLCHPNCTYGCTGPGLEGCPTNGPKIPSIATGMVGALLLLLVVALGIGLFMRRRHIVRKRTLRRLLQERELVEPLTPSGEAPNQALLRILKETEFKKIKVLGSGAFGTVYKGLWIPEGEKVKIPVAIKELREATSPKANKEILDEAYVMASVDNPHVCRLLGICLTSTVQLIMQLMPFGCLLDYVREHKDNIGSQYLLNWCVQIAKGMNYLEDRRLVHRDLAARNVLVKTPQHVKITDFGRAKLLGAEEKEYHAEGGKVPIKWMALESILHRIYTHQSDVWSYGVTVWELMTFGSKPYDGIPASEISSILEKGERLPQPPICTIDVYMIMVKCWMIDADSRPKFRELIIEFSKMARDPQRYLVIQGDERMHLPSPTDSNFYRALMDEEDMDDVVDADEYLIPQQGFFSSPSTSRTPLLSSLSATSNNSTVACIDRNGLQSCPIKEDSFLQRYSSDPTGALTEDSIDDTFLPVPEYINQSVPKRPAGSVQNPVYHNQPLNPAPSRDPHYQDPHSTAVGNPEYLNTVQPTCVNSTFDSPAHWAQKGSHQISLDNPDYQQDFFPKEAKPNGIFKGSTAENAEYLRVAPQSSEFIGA
Sequence of Epidermal growth factor receptor (Homo sapiens, UniProt P00533) (P00533 whole entry): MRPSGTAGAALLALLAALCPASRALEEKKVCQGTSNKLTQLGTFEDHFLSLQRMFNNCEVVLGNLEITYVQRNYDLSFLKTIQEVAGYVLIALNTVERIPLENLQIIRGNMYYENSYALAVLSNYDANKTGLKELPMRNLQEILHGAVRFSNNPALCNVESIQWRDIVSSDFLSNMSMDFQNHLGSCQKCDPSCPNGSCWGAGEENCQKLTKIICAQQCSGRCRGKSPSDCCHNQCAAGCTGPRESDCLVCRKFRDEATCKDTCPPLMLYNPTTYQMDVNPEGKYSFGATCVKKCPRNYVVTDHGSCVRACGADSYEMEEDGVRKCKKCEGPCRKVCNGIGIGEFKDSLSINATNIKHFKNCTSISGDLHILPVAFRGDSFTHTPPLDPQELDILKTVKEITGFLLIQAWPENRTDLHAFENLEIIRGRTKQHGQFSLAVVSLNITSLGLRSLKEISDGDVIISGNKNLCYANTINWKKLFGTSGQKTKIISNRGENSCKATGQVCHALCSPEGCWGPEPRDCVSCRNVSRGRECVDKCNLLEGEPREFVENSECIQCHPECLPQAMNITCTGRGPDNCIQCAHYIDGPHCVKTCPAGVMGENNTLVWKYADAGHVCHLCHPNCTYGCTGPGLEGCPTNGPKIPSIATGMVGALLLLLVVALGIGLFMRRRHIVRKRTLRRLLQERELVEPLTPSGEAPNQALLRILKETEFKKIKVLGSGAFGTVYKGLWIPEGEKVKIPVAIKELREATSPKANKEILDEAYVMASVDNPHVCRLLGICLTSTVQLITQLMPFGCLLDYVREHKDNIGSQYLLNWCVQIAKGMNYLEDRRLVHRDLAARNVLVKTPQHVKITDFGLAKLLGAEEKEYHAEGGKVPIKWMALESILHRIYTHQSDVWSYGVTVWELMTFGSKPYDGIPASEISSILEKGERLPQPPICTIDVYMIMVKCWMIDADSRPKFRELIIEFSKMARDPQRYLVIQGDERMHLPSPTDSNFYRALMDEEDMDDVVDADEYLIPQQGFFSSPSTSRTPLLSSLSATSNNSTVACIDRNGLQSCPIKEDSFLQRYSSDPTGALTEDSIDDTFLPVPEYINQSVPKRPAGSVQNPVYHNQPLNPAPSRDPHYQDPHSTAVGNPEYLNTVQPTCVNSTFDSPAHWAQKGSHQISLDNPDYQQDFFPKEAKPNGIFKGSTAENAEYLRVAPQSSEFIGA
Sequence of Epidermal growth factor receptor (Homo sapiens, UniProt P00533, T790M) (P00533 25-1210 T790M limits assumed): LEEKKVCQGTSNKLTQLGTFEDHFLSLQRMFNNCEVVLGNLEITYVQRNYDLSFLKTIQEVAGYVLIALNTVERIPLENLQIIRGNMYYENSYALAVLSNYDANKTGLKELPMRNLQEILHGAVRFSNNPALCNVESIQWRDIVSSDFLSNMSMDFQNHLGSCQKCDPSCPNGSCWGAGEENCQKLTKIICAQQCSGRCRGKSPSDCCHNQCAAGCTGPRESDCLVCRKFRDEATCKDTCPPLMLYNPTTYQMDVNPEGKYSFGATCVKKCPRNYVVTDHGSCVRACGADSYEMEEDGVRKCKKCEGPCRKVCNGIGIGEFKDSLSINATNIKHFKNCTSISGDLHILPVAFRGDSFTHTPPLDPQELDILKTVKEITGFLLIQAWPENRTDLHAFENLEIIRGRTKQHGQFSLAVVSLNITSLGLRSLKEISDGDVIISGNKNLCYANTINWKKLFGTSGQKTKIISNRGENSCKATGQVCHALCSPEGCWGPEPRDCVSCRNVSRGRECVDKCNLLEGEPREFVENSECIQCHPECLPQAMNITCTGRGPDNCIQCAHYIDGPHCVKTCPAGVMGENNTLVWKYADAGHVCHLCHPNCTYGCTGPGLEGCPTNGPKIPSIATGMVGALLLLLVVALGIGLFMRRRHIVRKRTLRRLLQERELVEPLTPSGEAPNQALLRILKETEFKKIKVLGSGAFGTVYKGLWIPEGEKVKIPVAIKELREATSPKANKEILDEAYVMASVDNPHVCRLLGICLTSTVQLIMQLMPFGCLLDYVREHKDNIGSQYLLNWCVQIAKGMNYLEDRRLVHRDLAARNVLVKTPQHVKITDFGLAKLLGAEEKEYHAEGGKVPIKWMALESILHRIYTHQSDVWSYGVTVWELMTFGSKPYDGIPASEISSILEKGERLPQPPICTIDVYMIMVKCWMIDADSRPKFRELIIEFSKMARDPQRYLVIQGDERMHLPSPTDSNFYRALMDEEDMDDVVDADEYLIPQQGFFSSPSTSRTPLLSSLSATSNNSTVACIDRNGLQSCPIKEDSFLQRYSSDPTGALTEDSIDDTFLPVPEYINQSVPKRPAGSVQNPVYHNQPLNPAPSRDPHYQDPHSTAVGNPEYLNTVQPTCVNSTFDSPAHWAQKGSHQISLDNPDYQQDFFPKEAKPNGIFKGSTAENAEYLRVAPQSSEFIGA

With `C=CC(=O)Nc1cccc(Oc2nc(Nc3ccc(N4CCN(C)CC4)cc3OC)ncc2Cl)c1`, the IC50 (commonly the concentration that gives 50% inhibition) in [1] was 9150 nM; in the data set on NCI-H1975, 87 nM; in data set [2], 24 nM.

For the compound `C=CC(=O)Nc1cccc(N2C(=O)C(Cc3ccc(OC)cc3)N(C)C(=O)c3cnc(Nc4ccc(N5CCN(C)CC5)cc4OC)nc32)c1` (stereo not given), the IC50 in data set [1] is 16200 nM; in the data set with NCI-H1975, 820 nM; in [3], 88.3 nM; in data set [4], 97.1 nM; in data set [5], 50 nM; in [6] it was 33.9 nM. The IC50 in data set [7] was determined as 53.9 nM; in data set [2] it was 280 nM.

On to `C=CC(=O)Nc1cccc(N2C(=O)C(Cc3ccc(Cl)cc3)N(C)C(=O)c3cnc(Nc4ccc(N5CCN(C)CC5)cc4OC)nc32)c1` (stereo not given), for which the IC50 in data set [1] was found to be 8730 nM; in the data set on NCI-H1975, 470 nM; in data set [2] it was 300 nM.

As for `C=CC(=O)Nc1cccc(N2C(=O)C3CCCCN3C(=O)c3cnc(Nc4ccc(N5CCN(C)CC5)cc4OC)nc32)c1` (stereo not given), the IC50 in [1] worked out at 23000 nM; in the data set on NCI-H1975, 990 nM; in data set [3] it was 115 nM; in [4] it was 2.74 nM; in [5], 4.3 nM; in data set [6], 2.45 nM. Also, the IC50 in data set [7] came out at 40.7 nM; in data set [2] it was 68 nM.

`C=CC(=O)Nc1cccc(N2C(=O)CN(C)C(=O)c3cnc(Nc4ccc(N5CCN(C)CC5)cc4OC)nc32)c1`: the IC50 in data set [1] was 44500 nM; with NCI-H1975, 11700 nM; in data set [3] it was 110 nM; in [4], 22.3 nM; in [5], 15.1 nM; in [6], 9.14 nM. The IC50 in data set [7] worked out at 52.6 nM; in data set [2] it was 1680 nM.

With `C=CC(=O)Nc1cccc(N2C(=O)CN(c3ccccc3)C(=O)c3cnc(Nc4ccc(N5CCN(C)CC5)cc4OC)nc32)c1`, the IC50 in data set [1] was found to be 1710 nM; with NCI-H1975, 9190 nM; in [3], 221 nM; in data set [4] it was 6.86 nM; in data set [5] it was 30.7 nM; in data set [6], 6.99 nM. For the same compound, the IC50 is 194 nM in data set [7] and 140 nM in [2].

Regarding `C=CC(=O)Nc1cccc(N2C(=O)C(C)N(C)C(=O)c3cnc(Nc4ccc(N5CCN(C)CC5)cc4OC)nc32)c1` (stereo not given), the IC50 in data set [1] amounted to 49200 nM; with NCI-H1975 it was 920 nM; in data set [3] it was 122 nM; in data set [4] it was 6.02 nM; in data set [5] it was 41.6 nM; in data set [6], 22.1 nM. Moreover, the IC50 in data set [7] worked out at 50.9 nM; in data set [2] it was 130 nM.

Consider `C=CC(=O)Nc1cccc(N2C(=O)C(C(C)CC)N(C)C(=O)c3cnc(Nc4ccc(N5CCN(C)CC5)cc4OC)nc32)c1` (stereo not given), for which the IC50 is 15000 nM in [1]; 1110 nM in the data set with NCI-H1975; 86.8 nM in data set [3]; 7.25 nM in data set [4]; 13.2 nM in data set [5]; 10.2 nM in [6]. The figures for the IC50 in data set [7] and in data set [2] were 87.5 nM and 600 nM, respectively.

Consider `C=CC(=O)Nc1cccc(N2C(=O)C(Cc3ccccc3)N(C)C(=O)c3cnc(Nc4ccc(N5CCN(C)CC5)cc4OC)nc32)c1` (stereo not given), for which the selectivity ratio in [8] and in data set [9] was 200 in each case. The IC50 was 25600 nM in data set [1]; 89 nM with NCI-H1975; 16.5 nM in data set [3]; 5.3 nM in [4]; 8.33 nM in data set [5]; 4.68 nM in [6]. Moreover, the IC50 in data set [7] is 8.95 nM; in [2], 24 nM. The inhibition entry in data set [10] is “Dose-dependent effect”. For the same compound, the inhibition entry in [11] was “Active”.

Consider `C=CC(=O)Nc1cccc(N2C(=O)C3CCCN3C(=O)c3cnc(Nc4ccc(N5CCN(C)CC5)cc4OC)nc32)c1` (stereo not given), for which the IC50 in data set [1] is 16100 nM; in the data set on NCI-H1975, 31400 nM; in data set [3], greater than 1000 nM; in data set [4], greater than 1000 nM; in [5], greater than 1000 nM; in data set [6] it was greater than 1000 nM. Also, the IC50 in data set [7] is greater than 1000 nM; in [2] it was 6900 nM.

As to `C=CC(=O)Nc1cccc(N2C(=O)C(Cc3ccc(F)cc3)N(C)C(=O)c3cnc(Nc4ccc(N5CCN(C)CC5)cc4OC)nc32)c1` (stereo not given), the selectivity ratio in data set [8] and in data set [9] was 200 each time. The IC50 turned out to be 13700 nM in [1]; 69 nM with NCI-H1975; 17.9 nM in data set [3]; 7.57 nM in [4]; 24.5 nM in data set [5]; 5.78 nM in data set [6]. The IC50 turned out to be 14.1 nM in data set [7] and 71 nM in [2]. Further, the inhibition entry in data set [10] is “Dose-dependent effect”. Besides, in data set [11], the inhibition entry is “Active”.

In the case of `C=CC(=O)Nc1cccc(N2C(=O)C(C(C)C)N(C)C(=O)c3cnc(Nc4ccc(N5CCN(C)CC5)cc4OC)nc32)c1` (stereo not given), the IC50 in [1] came to 28200 nM; with NCI-H1975 it was 650 nM; in [3], 44 nM; in data set [4] it was 24.1 nM; in [5] it was 56.5 nM; in data set [6], 24.8 nM. For the same compound, the IC50 amounted to 24.8 nM in data set [7] and 69 nM in [2].

For the compound `C=CC(=O)Nc1cccc(N2C(=O)C(c3ccccc3)N(C)C(=O)c3cnc(Nc4ccc(N5CCN(C)CC5)cc4OC)nc32)c1` (stereo not given), the IC50 was 14300 nM in data set [1]; 5900 nM in the data set on NCI-H1975; 778 nM in data set [3]; 77.1 nM in [4]; 174 nM in data set [5]; 77.2 nM in [6]. For the same compound, the values for the IC50 in data set [7] and in [2] were greater than 1000 nM and 3820 nM, respectively.

As for `C=CC(=O)Nc1cccc(N2C(=O)CN(Cc3ccccc3)C(=O)c3cnc(Nc4ccc(N5CCN(C)CC5)cc4OC)nc32)c1`, the IC50 in [1] turned out to be 17500 nM; with NCI-H1975 it was 2590 nM; in data set [3], 84.2 nM; in [4] it was 8.4 nM; in data set [5], 9.12 nM; in data set [6], 6.26 nM. Moreover, the IC50 in data set [7] was determined as 32.8 nM; in data set [2], 87 nM.
